In PubChem BioAssay AID977614 (Broad Institute, 2014):
Active and inactive are the calls of the source.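 Rule for the calls: active = parasite count per well reduced by over 3 SD from the mean, with host cell number above 80% of untreated; inactive = the rest.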

System: L. donovani amastigotes in THP-1 macrophages, DAPI imaging, 72 h
Assay: antileishmanial activity in infected macrophages – imaging, THP-1 host macrophages, single concentration (AID 977614);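 note: signal is the parasite per host cell ratio from DAPI stained kinetoplasts and nuclei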

`CCS(=O)(=O)N(C)C[C@@H]1N[C@H](CO)[C@@H]1c1ccc(-c2ccccc2F)cc1` was tested, and the AC50 was > 10 µM (inactive).
In the case of `C[C@@H]1CN([C@@H](C)CO)C(=O)CCCn2nncc2CO[C@@H]1CN(C)C(=O)CCC(F)(F)F`, the AC50 is reported as > 10 µM (inactive).
For `Cc1noc(C)c1S(=O)(=O)N(C)C[C@@H]1OCc2cn(nn2)CCCC(=O)N([C@@H](C)CO)C[C@@H]1C`, the AC50 was > 10 µM (inactive).
In the case of `CCCNC(=O)N(C)C[C@@H]1[C@@H](c2ccccc2)[C@H](CO)N1C(=O)c1ccccc1`, the AC50 is reported as > 10 µM (inactive).
For `O=C(NC[C@H]1N[C@H](CO)[C@@H]1c1ccc(-c2ccccc2)cc1)c1cccc(F)c1`, the AC50 was > 10 µM (inactive).
With `COCC(=O)N1[C@H](CO)[C@H](c2ccc(C#CC(C)C)cc2)[C@@H]1CNC(C)=O` the AC50 was > 10 µM (inactive).
With `C[C@H](CO)N1C[C@H](C)[C@H](CN(C)CC2CCCCC2)OCc2cnnn2CCCC1=O` the AC50 was > 10 µM (inactive).
For `C[C@H]1CN([C@@H](C)CO)C(=O)CCCn2nncc2CO[C@@H]1CN(C)Cc1cccc2c1OCCCO2`, the AC50 was > 10 µM (inactive).
`O=C(C1CCCCC1)N1[C@@H](CO)[C@@H]2c3ccccc3N(S(=O)(=O)c3ccccc3)C[C@@H]21` was tested, and the AC50 was > 10 µM (inactive).
For `CCCNC(=O)N1[C@@H]2CN(C(=O)Nc3cccc(Cl)c3)c3ccccc3[C@@H]2[C@@H]1CO`, the AC50 was > 10 µM (inactive).
In the case of `COc1ccc(C(=O)N2C[C@H]3[C@@H](c4ccccc42)[C@H](CO)N3C(=O)Cc2ccccn2)cc1`, the AC50 is reported as > 10 µM (inactive).
In the case of `C[C@@H]1CN([C@H](C)CO)C(=O)CCCn2nncc2CO[C@@H]1CN(C)C(=O)Nc1ccccc1C(F)(F)F`, the AC50 is reported as > 10 µM (inactive).
In the case of `O=C(Nc1cccc(F)c1)N1C[C@H]2[C@@H](c3ccccc31)[C@H](CO)N2C(=O)Cc1ccccn1`, the AC50 is reported as > 10 µM (inactive).
In the case of `C[C@@H]1CN([C@H](C)CO)C(=O)CCCn2nncc2CO[C@H]1CN(C)S(=O)(=O)c1ccc2c(c1)OCCCO2`, the AC50 is reported as > 10 µM (inactive).
With `CNC[C@@H]1OCc2cn(nn2)CCCC(=O)N([C@H](C)CO)C[C@@H]1C` the AC50 was > 10 µM (inactive).
`C[C@@H]1CN([C@@H](C)CO)C(=O)CCCn2cc(nn2)CO[C@H]1CN(C)Cc1ccccc1` was tested, and the AC50 was > 10 µM (inactive).
With `O=C(Nc1ccc(F)cc1)N1C[C@H]2[C@@H](c3ccccc31)[C@@H](CO)N2C(=O)c1ccncc1` the AC50 was > 10 µM (inactive).
With `COc1ccccc1-c1ccc([C@H]2[C@@H](CO)N(C(C)=O)[C@H]2CN(C)C(C)=O)cc1` the AC50 was > 10 µM (inactive).
`O=S(=O)(c1ccc(F)cc1)N1C[C@H]2[C@@H](c3ccccc31)[C@@H](CO)N2Cc1ccccc1Cl` was tested, and the AC50 was > 10 µM (inactive).
`CN1[C@H](CO)[C@H]2c3ccccc3NC[C@H]21` was tested, and the AC50 was > 10 µM (inactive).
For `Cc1noc(C)c1S(=O)(=O)N(C)C[C@@H]1OCc2cnnn2CCCC(=O)N([C@H](C)CO)C[C@@H]1C`, the AC50 was > 10 µM (inactive).
`CC(=O)N1[C@@H]2CN(C(=O)c3ccc(F)cc3)c3ccccc3[C@@H]2[C@@H]1CO` was tested, and the AC50 was > 10 µM (inactive).
For `C[C@@H]1CN([C@H](C)CO)C(=O)CCCn2nncc2CO[C@@H]1CN(C)C(=O)c1ccc2ccn(C)c2c1`, the AC50 was > 10 µM (inactive).
In the case of `C[C@H]1CN([C@@H](C)CO)C(=O)CCCn2cc(nn2)CO[C@H]1CN(C)C(=O)Nc1cccc2ccccc12`, the AC50 is reported as > 10 µM (inactive).
`O=C(NC[C@@H]1[C@@H](c2ccccc2)[C@@H](CO)N1C(=O)Cc1ccncc1)C1CCC1` was tested, and the AC50 was > 10 µM (inactive).
In the case of `C[C@@H]1CN([C@@H](C)CO)C(=O)CCCn2nncc2CO[C@H]1CN(C)C(=O)Oc1cccc2ccccc12`, the AC50 is reported as > 10 µM (inactive).
`C[C@H](CO)N1C[C@H](C)[C@H](CN(C)Cc2ccccc2C(=O)O)OCc2cnnn2CCCC1=O` was tested, and the AC50 was > 10 µM (inactive).
For `C[C@H]1CN([C@@H](C)CO)C(=O)CCCn2nncc2CO[C@@H]1CN(C)Cc1ccc2c(c1)OCCN2C`, the AC50 was > 10 µM (inactive).
With `CC(=O)N1C[C@@H]2[C@H](c3ccccc31)[C@H](CO)N2Cc1ccc(Cl)cc1` the AC50 was > 10 µM (inactive).
For `C[C@H]1CN([C@@H](C)CO)C(=O)CCCn2cc(nn2)CO[C@@H]1CN(C)C(=O)Nc1cccc(C(F)(F)F)c1`, the AC50 was > 10 µM (inactive).
For `O=S(=O)(c1ccc(F)cc1)N1C[C@@H]2[C@H](c3ccccc31)[C@@H](CO)N2Cc1ccccc1Cl`, the AC50 was > 10 µM (inactive).
For `O=C(NC[C@@H]1[C@@H](c2ccccc2)[C@H](CO)N1Cc1ccccn1)C1CCCC1`, the AC50 was > 10 µM (inactive).
For `COCCNC[C@H]1[C@@H](c2ccccc2)[C@@H](CO)N1c1nc(C)c(C)s1`, the AC50 was > 10 µM (inactive).
`COCC(=O)N(C[C@H]1N[C@H](CO)[C@@H]1c1ccc(C2=CCCC2)cc1)C1CCCC1` was tested, and the AC50 was > 10 µM (inactive).
In the case of `CCN(C[C@@H]1N[C@@H](CO)[C@H]1c1ccccc1)C(=O)c1ccncc1`, the AC50 is reported as > 10 µM (inactive).
In the case of `O=C(c1ccccc1F)N1C[C@H]2[C@@H](c3ccccc31)[C@@H](CO)N2Cc1ccc2c(c1)OCO2`, the AC50 is reported as > 10 µM (inactive).
`CN1C[C@H]2[C@@H](c3ccccc31)[C@@H](CO)N2C(=O)c1cccnc1` was tested, and the AC50 was > 10 µM (inactive).
With `CCC(=O)N1C[C@H]2[C@@H](c3ccccc31)[C@H](CO)N2Cc1ccc(F)cc1` the AC50 was > 10 µM (inactive).
`CCC(=O)NC[C@H]1[C@@H](c2ccc(-c3ccc(F)cc3)cc2)[C@@H](CO)N1C(=O)CC` was tested, and the AC50 was > 10 µM (inactive).
In the case of `O=C(Nc1ccccc1Cl)N1C[C@@H]2[C@H](c3ccccc31)[C@H](CO)N2C(=O)c1cccnc1`, the AC50 is reported as > 10 µM (inactive).
With `CC(=O)N(CC1CCC1)C[C@@H]1N[C@@H](CO)[C@H]1c1ccc(C2=CCCC2)cc1` the AC50 was > 10 µM (inactive).
`C[C@H](CO)N1C[C@H](C)[C@H](CN(C)S(=O)(=O)c2ccccc2C#N)OCc2cnnn2CCCC1=O` was tested, and the AC50 was > 10 µM (inactive).
For `COc1ccccc1NC(=O)N1C[C@H]2[C@@H](c3ccccc31)[C@@H](CO)N2C(=O)C1CCCC1`, the AC50 was > 10 µM (inactive).
In the case of `COCC(=O)N(C[C@H]1[C@H](c2ccccc2)[C@@H](CO)N1C(=O)NC(C)C)C(C)C`, the AC50 is reported as > 10 µM (inactive).
In the case of `Cc1noc(C)c1NC(=O)N(C)C[C@@H]1OCc2cn(nn2)CCCC(=O)N([C@H](C)CO)C[C@H]1C`, the AC50 is reported as > 10 µM (inactive).
`O=C(Nc1ccc(Cl)cc1)N1C[C@H]2[C@@H](c3ccccc31)[C@@H](CO)N2CC1CCCCC1` was tested, and the AC50 was > 10 µM (inactive).
In the case of `Cc1noc(C)c1S(=O)(=O)N(C)C[C@@H]1OCc2cn(nn2)CCCC(=O)N([C@H](C)CO)C[C@H]1C`, the AC50 is reported as > 10 µM (inactive).
With `C[C@@H]1CN([C@@H](C)CO)C(=O)CCCn2nncc2CO[C@H]1CN(C)S(=O)(=O)c1cn(C)cn1` the AC50 was > 10 µM (inactive).
With `CC(C)N(C[C@H]1[C@H](c2ccccc2)[C@@H](CO)N1S(C)(=O)=O)C(=O)CN(C)C` the AC50 was > 10 µM (inactive).
`CCCN1[C@H](CO)[C@H](c2ccc(C#Cc3ccccc3)cc2)[C@@H]1CNC1CCCC1` was tested, and the AC50 was > 10 µM (inactive).
With `CCS(=O)(=O)N(C)C[C@@H]1N[C@H](CO)[C@@H]1c1ccc(C#CC(C)C)cc1` the AC50 was > 10 µM (inactive).
For `Cc1cccc(S(=O)(=O)N2C[C@@H]3[C@H](c4ccccc42)[C@@H](CO)N3C(=O)c2ccccc2)c1`, the AC50 was > 10 µM (inactive).
In the case of `C[C@@H]1CN([C@H](C)CO)C(=O)CCCn2cc(nn2)CO[C@@H]1CN(C)C(=O)Oc1ccc2ccccc2c1`, the AC50 is reported as > 10 µM (inactive).
With `CC(=O)N1[C@H](CO)[C@H](c2ccccc2)[C@@H]1CNC(=O)CN1CCOCC1` the AC50 was > 10 µM (inactive).
For `CCN(C[C@@H]1[C@@H](c2ccc(C3=CCCCC3)cc2)[C@@H](CO)N1CC1CC1)C(C)=O`, the AC50 was > 10 µM (inactive).
In the case of `C/C=C/c1ccc([C@H]2[C@@H](CNC(C)=O)N(C(=O)Cc3ccncc3)[C@H]2CO)cc1`, the AC50 is reported as > 10 µM (inactive).
With `O=C(C1CC1)N1C[C@@H]2[C@H](c3ccccc31)[C@@H](CO)N2C(=O)c1ccccc1` the AC50 was > 10 µM (inactive).
With `C[C@H](CO)N1C[C@H](C)[C@H](CN(C)C(=O)CCC(F)(F)F)OCc2cn(nn2)CCCC1=O` the AC50 was > 10 µM (inactive).
In the case of `O=C(CC1CC1)N1[C@@H](CO)[C@@H]2c3ccccc3N(S(=O)(=O)c3ccccc3F)C[C@@H]21`, the AC50 is reported as > 10 µM (inactive).
For `CNC[C@@H]1OCc2cn(nn2)CCCC(=O)N([C@@H](C)CO)C[C@@H]1C`, the AC50 was > 10 µM (inactive).
With `COc1ccccc1NC(=O)N1C[C@H]2[C@@H](c3ccccc31)[C@@H](CO)N2Cc1ccc2c(c1)OCO2` the AC50 was > 10 µM (inactive).
In the case of `C[C@@H]1CN([C@@H](C)CO)C(=O)CCCn2cc(nn2)CO[C@@H]1CN(C)C(=O)Nc1cccc(C(F)(F)F)c1`, the AC50 is reported as > 10 µM (inactive).
With `C/C=C/c1ccc([C@H]2[C@@H](CNC(=O)CC3CC3)N(C(=O)CC)[C@H]2CO)cc1` the AC50 was > 10 µM (inactive).
In the case of `C[C@H]1CN([C@@H](C)CO)C(=O)CCCn2nncc2CO[C@@H]1CN(C)Cc1cccc(C(F)(F)F)c1`, the AC50 is reported as > 10 µM (inactive).
With `CNC[C@H]1OCc2cnnn2CCCC(=O)N([C@H](C)CO)C[C@@H]1C` the AC50 was > 10 µM (inactive).
In the case of `CN1C[C@@H]2[C@H](c3ccccc31)[C@H](CO)N2C(=O)c1cccnc1`, the AC50 is reported as > 10 µM (inactive).
For `C[C@@H]1CN([C@@H](C)CO)C(=O)CCCn2nncc2CO[C@H]1CN(C)C(=O)NC1CCCC1`, the AC50 was > 10 µM (inactive).
`CN1C[C@H]2[C@@H](c3ccccc31)[C@@H](CO)N2C(=O)C1CCOCC1` was tested, and the AC50 was > 10 µM (inactive).
With `C[C@@H]1CN([C@@H](C)CO)C(=O)CCCn2nncc2CO[C@@H]1CN(C)Cc1ccccc1C(=O)O` the AC50 was > 10 µM (inactive).
For `O=C(NC[C@@H]1[C@@H](c2ccccc2)[C@H](CO)N1C(=O)Cc1ccncc1)C1CCC1`, the AC50 was > 10 µM (inactive).
For `OC[C@H]1[C@@H]2c3ccccc3NC[C@@H]2N1Cc1cccnc1`, the AC50 was > 10 µM (inactive).
With `C/C=C/c1ccc([C@@H]2[C@H](CO)N(C(C)=O)[C@H]2CNC(=O)c2ccccc2)cc1` the AC50 was > 10 µM (inactive).
`C/C=C/c1ccc([C@H]2[C@@H](CO)N(S(=O)(=O)CC)[C@@H]2CN(C)C(=O)CC)cc1` was tested, and the AC50 was > 10 µM (inactive).
With `COc1ccccc1C(=O)N1C[C@@H]2[C@H](c3ccccc31)[C@H](CO)N2CC1CCCC1` the AC50 was > 10 µM (inactive).
`C[C@H]1CN([C@@H](C)CO)C(=O)CCCn2cc(nn2)CO[C@@H]1CN(C)C(=O)Nc1cccc2ccccc12` was tested, and the AC50 was > 10 µM (inactive).
`COc1ccccc1CN1[C@H](CO)[C@@H]2c3ccccc3N(C(=O)C3CCOCC3)C[C@@H]21` was tested, and the AC50 was > 10 µM (inactive).
